Laboratory results: US12478081B2, “Application of aspartic acid derivative in preparing animal feed additive” (ANIPHA TECHNOLOGIES PTY LTD, priority 2018, dated 2025)
Marks after values point to notes of the source that are not given here.

Experiments:
[1] = system: weaned piglets; assay: Breeding test: production performance of weaned piglets; type: in vivo, Duroc×Landrace×Yorkshire cross-bred weaned piglets; settings: for ADFI (g/d*each pig) / ADG (g/d*each pig) / FCR: weaned piglets, 45 ppm in basal daily ration, 40 days; for increase of the average daily gain of the test pigs: compared with the control group, not significant
From the text: From 95 litters of 28±2 days old Duroc×Landrace×Yorkshire cross-bred weaned piglets, 360 clinically healthy piglets with similar body weights were selected as test pigs, which were randomly divided into 12 groups, with 3 replications per group and 10 pigs (half of male and female) per replication. The piglets were attracted to the food trough at the age of 7 days, and the hog house for 28-day-old weaned pigs has a cement floor, steel fence, good ventilation, and suitable temperature. The pigpens and utensils were sterilized before the test.
During the test period, the test pigs were free-stall housed in the same pigpen under the same feeding and management conditions, and were free to drink water and eat feed. The hog house was cleaned once a day, and the floor is washed once every three days to maintain clean and hygienic conditions. The test pigs were fed three times a day. The test groups include control and test groups. Group I is the control group, in which only the basal daily ration was fed to the piglets. […] 1000 ppm of a the aspartic acid derivative metal ion salt was added into the basal daily ration for the piglets in the groups VIII-XII, as shown in Table 2. No other antioxidant ingredients or growth promoters were added for the test groups during the entire feeding process. The test period was 40 days.
The test pigs were weighed during 7:00 to 9:00 in the morning of Day 0 and Day 40 after the start of the test. During the test period, the feed intake and health status of the piglets were observed every day, the remaining daily ration was weighed, the feed consumption was recorded, and the average daily feed intake (ADFI, g/d*each pig), the average daily gain (ADG, g/d*each pig), and the feed conversion ratio (FCR) were calculated. Calculation formulas are as follows: […]
(§1) The test data was statistically analyzed using SPSS18 software. First, a one-way analysis of variance (ANOVA) was performed on the data. If the difference between treatments is significant, Duncan's method was used for multiple comparisons, and the significance level was 0.05.

[2] = system: laying hens; assay: Breeding test: production performance of laying hens; type: in vivo, Jingbai laying hens; settings: 158 days; for ADFI / EPR (%) / EW (g): 500 ppm in basal daily ration; for feed-to-egg ratio: Table 4, 500 ppm in basal daily ration
From the text: The test adopted a single-factor random design. 420 147-day-old Jingbai laying hens with similar body weights were selected and randomly divided into 7 treatment groups, with 3 replications per group and 20 Jingbai laying hens (half of male and female) per replication. The poultry houses and utensils were sterilized before the test. During the test period, the Jingbai laying hens were cage cultured in the same laying poultry house under the same feeding and management conditions. The basal daily ration was mainly corn-soybean meal, and no other antioxidant ingredients or growth promoters were added additionally during the entire feeding process. The test groups include a control group and test groups I-VII. The basal daily ration was fed for the control group I only, and 500 ppm of different aspartic acid derivatives were added into the basal daily ration for the test groups II-VII, as shown in Table 3. The pre-feeding period was 10 days, and the test period was 158 days. The test laying hens were free to drink water and eat feed, and were fed twice a day.
Parameter statistics: During the test period, taking each repetition as a unit, the total egg number, the egg production, and the feed intake were recorded every day, and the egg production rate (EPR), the average daily feed intake (ADFI, g/d), the egg weight (EW, g) and the feed-to-egg ratio (FER) of the laying hens during the entire test were calculated.
Calculation formulas are as follows: […]
as §1

[3] = system: grass carps; assay: Use of aspartic acid derivatives in feeds for fish (grass carp breeding test); type: in vivo; settings: for Average final weight (g) / FCR / Weight gain (%): grass carps, 3000 ppm in feed, 8 weeks; for effect on weight gain of grass carps (in words): 3000 ppm, compared with the control group
Description: Test fish: The test fishes used were healthy and lively grass carp fingerlings with uniform size, which were fed in large cages for 4 weeks before being used for formal breeding test. The experimental system was a small floating cage (specification: 1.1×1.1×1.1 m^3), each small floating cage being equipped with an aeration head, providing aeration 24 h a day. Both the small floating cage and the temporary cage were placed in a 3500 m^2 pond of the test field, the depth of the pond was about 1.5 m, and the water of the pond was fully aerated in the bottom of the pond. 560 grass carps that were hungry for 1 day were randomly divided into 7 groups, with 4 replications per group and 20 grass carps per replication. By taking each replication as a unit, all of the grass carps were weighed, and then placed in 28 cages and fed with test feeds containing different test samples at the same content level.
Test feeds: The feeds for the test were self-prepared based on the formulations in Table 6, and different test samples were added at the same content level for different test groups according to Table 7, respectively.
The feed raw materials used were ground by ultrafine grinding and fed into a puffing machine produced by Jiangsu Muyang Group Co., Ltd. to make 3 mm floating puffed feed, where the mold clearing temperature was 130° C., 3% soybean oil was sprayed using an oil spraying equipment, and the obtained feed was sealed and stored in a cool place for later use.
Test management: The test adopted controlled artificial feeding, and the feeding amount was adjusted once a week. The feeding levels for all the groups (based on the initial fish weight) were exactly the same, and the grass carps were fed twice a day (7:30 and 15:00). The total feeding amount was 580 g/replication test group. The test period was 8 weeks. During the test, the water quality was regularly monitored. The water temperature during the whole breeding process was 26.88±3.08° C., DO>5.0 mg O L^−1, pH 7.8, ammonia nitrogen<0.50 mg N L^−1, nitrite nitrogen<0.05 mg N L^−1.
Parameter statistics: During the test, after the provisioning of feeds has been stopped for 1 day, fishes in each cage were weighed as a whole, and the weight gain (WG, %) and the feed conversion ratio (FCR) were calculated. Calculation formulas are as follows:
[formula] [formula] (3) Test Results

[4] = system: broilers; assay: Breeding test: production performance of broilers; type: in vivo, yellow-feathered broilers; settings: for ADFI (g/d*each broiler) / ADG (g/d*each broiler) / FCR: broilers, 300 ppm in basal daily ration, 20 days; for effect on the average daily gain of the test broilers (in words): 300 ppm, compared with the control group
From the text: The test adopted a single-factor random design. 420 1-day-old yellow-feathered broilers with similar body weights and having an average weight of 50 g were selected and randomly divided into 7 treatment groups, with 3 replications per group and 20 yellow-feathered broilers (half of male and female) per replication. The poultry houses and utensils were sterilized before the test. During the test period, the Jingbai laying hens were cage cultured in the same laying henhouse under the same feeding and management conditions. The basal daily ration was mainly corn-soybean meal, and no other antioxidant ingredients or growth promoters were added additionally during the entire feeding process. The test groups include a control group and test groups I-VII. The basal daily ration was fed for the control group I only, and 300 ppm of different aspartic acid derivatives were added into the basal daily ration for the test groups II-VII, as shown in Table 5. The test period was 20 days. The test yellow-feathered broilers were free to drink water and eat feed, and were fed twice a day. Taking each repetition as a unit, the test broilers were weighed at the age of 21 days (where provisioning of feeds was stopped for 12 hours, but provisioning of water was not stopped), the feed consumption of the test broilers were calculated, and the average daily feed intake (ADFI, g/d*each broiler), the average daily gain (ADG, g/d*each broiler) and the feed conversion ratio (FCR) were calculated for the test broilers of each group. Calculation formulas are as follows: […]
as §1

Compound	ADFI (g/d*each pig) [1]	ADG (g/d*each pig) [1]	FCR [1]	ADFI [2] [g/day]	EPR (%) [2]	EW (g) [2]	feed-to-egg ratio [2]	Average final weight (g) [3]	FCR [3]	Weight gain (%) [3]	ADFI (g/d*each broiler) [4]	ADG (g/d*each broiler) [4]	FCR [4]	effect on weight gain of grass carps (in words) [3]	effect on the average daily gain of the test broilers (in words) [4]	increase of the average daily gain of the test pigs [1] [%]
NCCCCCCCCCC(=O)NC(CC(=O)O)C(=O)O (racemic) [Compound 10, N-(10-aminodecanoyl)-DL-aspartic acid]	321 ± 7^a g/d*each pig	150 ± 1^bc g/d*each pig	2.14 ± 0.06	119.31 ± 1.84	85.24 ± 0.18^c %	57.45 ± 0.47^c g	2.08 ± 0.03	781.0 ± 5.1^b g	1.653 ± 0.009^b	81.58 ± 0.96%	34.82 ± 0.64^a g/d*each broiler	14.40 ± 0.15^b g/d*each broiler	2.42 ± 0.04^b	–	–	–
CCOC(=O)CC(NC(N)=O)C(=O)OCC (racemic) [Compound 2, diethyl N-carbamoyl-DL-aspartate]	374 ± 11^b g/d*each pig	176 ± 2^d g/d*each pig	2.13 ± 0.05	115.19 ± 3.14	86.28 ± 0.20^b %	55.94 ± 0.37^b g	2.06 ± 0.04	772.0 ± 6.3^b g	1.650 ± 0.008^b	83.74 ± 1.53^b %	40.05 ± 0.81^d g/d*each broiler	16.81 ± 0.68^b g/d*each broiler	2.39 ± 0.05^b	significant improvement effect	the most significant	–
NC(=O)NC(CC(=O)O)C(=O)O (racemic) [Compound 1, N-carbamoyl-DL-aspartic acid]	315 ± 14^a g/d*each pig	145 ± 10^abc g/d*each pig	2.18 ± 0.05	113.44 ± 1.55	85.80 ± 0.14^b %	55.49 ± 0.38^b g	2.04 ± 0.02	774.5 ± 4.8^b g	1.650 ± 0.011^b	83.19 ± 1.41^b %	38.83 ± 0.53 g/d*each broiler	16.59 ± 0.14^b g/d*each broiler	2.34 ± 0.03^b	–	the most significant	7.0
NCCCC(=O)NC(CC(=O)O)C(=O)O (racemic) [Compound 9, N-(4-aminobutyryl)-DL-aspartic acid]	311 ± 18^a g/d*each pig	146 ± 4^abc g/d*each pig	2.13 ± 0.06	113.64 ± 2.43	86.09 ± 0.18^b %	55.44 ± 0.37^b g	2.05 ± 0.04	781.8 ± 4.4^b g	1.662 ± 0.008^b	80.76 ± 1.52%	37.92 ± 0.53^c g/d*each broiler	15.84 ± 0.10^b g/d*each broiler	2.39 ± 0.04^b	–	–	8.1
NCCCCCCCCCCCCCC(=O)NC(CC(=O)O)C(=O)O (racemic) [Compound 11, N-(14-aminomyristoyl)-DL-aspartic acid]	322 ± 16^a g/d*each pig	150 ± 4^bc g/d*each pig	2.14 ± 0.05	115.13 ± 2.91	85.24 ± 0.17^c %	55.45 ± 0.35^b g	2.08 ± 0.04	769.2 ± 4.5^ab g	1.671 ± 0.008^b	82.32 ± 1.24%	36.70 ± 0.54^ac g/d*each broiler	15.02 ± 0.13^b g/d*each broiler	2.44 ± 0.04^b	–	–	–
NCC(=O)NC(CC(=O)O)C(=O)O (racemic) [Compound 8, N-glycyl-DL-aspartic acid]	305 ± 12^a g/d*each pig	142 ± 1^ab g/d*each pig	2.15 ± 0.07	113.01 ± 2.31	84.86 ± 0.24^c %	54.98 ± 0.39^a g	2.06 ± 0.03	778.2 ± 4.3^b g	1.671 ± 0.008^b	80.62 ± 1.46%	36.05 ± 0.83^b g/d*each broiler	14.48 ± 0.24^b g/d*each broiler	2.49 ± 0.03^ab	significant improvement effect	–	5.2
